In patent US12617773B2, “Azetidin-3-ylmethanol derivatives as CCR6 receptor modulators” (Idorsia Pharmaceuticals Ltd, priority 2020, dated 2026):

Biological target: T1, human CCR6 (Homo sapiens, UniProt P51684)
T1 construct: expressed in transfected cells; host or cells: HEK-293
T1 sequence (P51684 1-374): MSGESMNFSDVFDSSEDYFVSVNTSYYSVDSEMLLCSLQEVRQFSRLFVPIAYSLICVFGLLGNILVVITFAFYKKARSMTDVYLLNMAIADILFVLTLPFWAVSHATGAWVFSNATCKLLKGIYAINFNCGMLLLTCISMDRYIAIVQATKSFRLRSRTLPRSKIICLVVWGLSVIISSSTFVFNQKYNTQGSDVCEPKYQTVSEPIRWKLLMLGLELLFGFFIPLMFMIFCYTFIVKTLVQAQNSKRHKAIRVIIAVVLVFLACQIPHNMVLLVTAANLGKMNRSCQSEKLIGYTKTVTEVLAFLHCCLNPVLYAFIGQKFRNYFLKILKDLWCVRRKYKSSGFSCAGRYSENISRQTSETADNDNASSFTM
Assay: FLIPR assay (inhibition of CCL20-induced calcium signal)
Assay type: cell-based
Conditions: FLIPR IC50 (nM), HEK-293 cells expressing human CCR6; mean values where determined several times
In short: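 IC50 values come from baseline-corrected peak calcium fluorescence after agonist. The agonist was CCL20 at 10 nM final, added to engineered human CCR6 HEK-293 cells following a 30-min, room-temperature, dark preincubation with serially diluted compound. Readings were taken in a fluorometric imaging plate reader.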

SMILES | IC50 [nM]
CN1CC(C)(C(O)(c2ccc(C(C)(C)C)cc2)c2cncc(N3CCCC3)c2)C1 (centres unmarked) [Example 157] | 27.7

Same assay, conditions: HEK-293 cells expressing human CCR6; mean values where determined several times; read-out: FLIPR IC50

IC50 [nM] | SMILES
112 | CC(C)c1ccc([C@](O)(c2cncc(CCC(C)(O)c3ncccn3)c2)C2(C)CN(C)C2)cc1 (some centres unmarked) [Example 73]
181 | CC(C)c1ccc([C@](O)(c2cncc(-c3noc(C4CCNC(=O)C4)n3)c2)C2(C)CN(C)C2)cc1 (single isomer, unassigned) [Example 515]
44.6 | CC(C)c1ccc([C@](O)(c2cncc(C#CC(O)C3CCOCC3)c2)C2(C)CN(C)C2)cc1 (some centres unmarked) [Example 28]
113 | CC(=O)N1CCC(c2nc(-c3cncc([C@@](O)(c4ccc(C(C)C)cc4)C4(C)CN(CC5CC5)C4)c3)no2)CC1 [Example 581]
485 | COCCN1CC(C)([C@](O)(c2ccc(C(C)C)cc2)c2cncc(-c3noc(C4CCN(C(C)=O)CC4)n3)c2)C1 [Example 582]
165 | CC(C)c1ccc([C@](O)(c2cncc(-c3noc(C4(C)CC(=O)N(C)C4)n3)c2)C2(C)CN(C)C2)cc1 (single isomer, unassigned) [Example 366]
56.4 | CC(=O)N1CCCC(C)(c2nc(-c3cncc([C@@](O)(c4ccc(C(C)C)cc4)C4(C)CN(C)C4)c3)no2)C1 (some centres unmarked) [Example 457]
235 | COCC(=O)NC(C)(C)C#Cc1cncc([C@@](O)(c2ccc(C(C)C)cc2)C2(C)CN(C)C2)c1 [Example 590]
90 | CC(C)c1ccc([C@](O)(c2cncc(CCC3(O)CCN(C(=O)OC(C)(C)C)C3)c2)C2(C)CN(C)C2)cc1 (some centres unmarked) [Example 412]
43.7 | CC(C)c1ccc([C@](O)(c2cncc(-c3noc(C4CCN(S(=O)(=O)C(C)C)CC4)n3)c2)C2(C)CN(C)C2)cc1 [Example 382]
55.1 | CC(C)c1ccc([C@](O)(c2cncc(-c3noc(C4CCN(S(=O)(=O)C5CCOCC5)CC4)n3)c2)C2(C)CN(C)C2)cc1 [Example 387]
104 | CC(C)c1ccc([C@](O)(c2cncc(-c3noc(C4CCNC(=O)C4)n3)c2)C2(C)CN(C)C2)cc1 (single isomer, unassigned) [Example 516]
295 | CC(C)c1ccc([C@](O)(c2cncc(N3CCC(O)CC3)c2)C2(C)CN(C)C2)cc1 [Example 181]
16.9 | CC(C)c1ccc([C@](O)(c2cncc(CCC(C)(O)c3n[nH]c4ccccc34)c2)C2(C)CN(C)C2)cc1 (some centres unmarked) [Example 643]
61.6 | CC(C)c1ccc([C@](O)(c2cncc(N3CC[C@H](F)C3)c2)C2(C)CN(C)C2)cc1 [Example 283]
205 | CC(C)c1ccc([C@](O)(c2cncc(N3CC(C)(C)CC3=O)c2)C2(C)CN(C)C2)cc1 [Example 209]
39.2 | CC(C)c1ccc([C@](O)(c2cncc(N3CCCCC3)c2)C2(C)CN(C)C2)cc1 [Example 176]
39 | CC(C)c1ccc([C@](O)(c2cncc(-c3noc(C4CCN(C(=O)C5CC5)CC4)n3)c2)C2(C)CN(C)C2)cc1 [Example 374]
125 | CCC(=O)N1CCC(O)(c2nc(-c3cncc([C@@](O)(c4ccc(C(C)C)cc4)C4(C)CN(C)C4)c3)no2)CC1 [Example 471]
36.3 | C=C(C)c1cncc(C(O)(c2ccc(C(C)C)cc2)C2(C)CN(C)C2)c1 (centres unmarked) [Example 286]
22.6 | CC(C)c1ccc([C@](O)(c2cncc(C#CC3(S(=O)(=O)N(C)C)CC3)c2)C2(C)CN(C)C2)cc1 [Example 606]
60 | CC(C)c1ccc([C@](O)(c2cncc(-c3nc(C(C)(C)CO)no3)c2)C2(C)CN(C)C2)cc1 [Example 98]
46.6 | Cc1cc(C(C)(O)C#Cc2cncc([C@@](O)(c3ccc(C(C)C)cc3)C3(C)CN(C)C3)c2)on1 (some centres unmarked) [Example 648]
214 | CN1CC(C)(C(O)(c2ccccc2)c2cncc(N3CCCC3)c2)C1 (centres unmarked) [Example 153]
46.3 | CC(C)c1ccc([C@](O)(c2cncc(CCC(C)(O)C(F)(F)F)c2)C2(C)CN(C)C2)cc1 (some centres unmarked) [Example 637]
185 | CC(C)c1ccc([C@](O)(c2cncc(C#CC(C)(O)c3nccn3C)c2)C2(C)CN(C)C2)cc1 (some centres unmarked) [Example 649]
154 | Cc1cc(C(C)(O)CCc2cncc([C@@](O)(c3ccc(C(C)C)cc3)C3(C)CN(C)C3)c2)nn1C (some centres unmarked) [Example 74]
331 | CN1CC(C)([C@](O)(c2ccc(C(C)(C)C(F)(F)F)cc2)c2cncc(-c3noc(C(C)(C)O)n3)c2)C1 [Example 535]

IC50 [nM] | SMILES
42.2 | CC(C)c1ccc([C@](O)(c2ccnc(OCC3CCOCC3)c2)C2(C)CN(C)C2)cc1 [Example 277, (S)-(1,3-Dimethyl-azetidin-3-yl)-(4-isopropyl-phenyl)-[2-(tetrahydro-pyran-4-ylmethoxy)-pyridin-4-yl]-methanol]
40.4 | CC(C)c1ccc([C@](O)(c2cncc(C#CC3(c4ccc(F)cc4)CC3)c2)C2(C)CN(C)C2)cc1 [Example 403]
601 | CC(C)c1ccc([C@](O)(c2cncc(CCC(O)C3CCOCC3)c2)C2(C)CN(C)C2)cc1 (some centres unmarked) [Example 63]
149 | CC(=O)N1CCC(C(O)C#Cc2cncc([C@@](O)(c3ccc(C(C)C)cc3)C3(C)CN(C)C3)c2)CC1 (some centres unmarked) [Example 599]
35.9 | CC(C)c1ccc([C@](O)(c2cncc(-c3noc(C(F)(F)CO)n3)c2)C2(C)CN(C)C2)cc1 [Example 505]
134 | CC(C)c1ccc([C@](O)(c2cncc(CC[C@H](C)O)c2)C2(C)CN(C)C2)cc1 [Example 51]
277 | Cc1cccc(C(C)(O)CCc2cc([C@@](O)(c3ccc(C(C)C)cc3)C3(C)CN(C)C3)cnn2)n1 (stereo partly drawn) [Example 420, 4-{5-[(R)-(1,3-Dimethyl-azetidin-3-yl)-hydroxy-(4-isopropyl-phenyl)-methyl]-pyridazin-3-yl}-2-(6-methyl-pyridin-2-yl)-butan-2-ol]
65.8 | CC(C)c1ccc([C@](O)(c2cncc(CCC3(O)CN(C(=O)OC(C)(C)C)C3)c2)C2(C)CN(C)C2)cc1 [Example 55]
39.5 | CC(C)c1ccc([C@](O)(c2cncc(-c3noc(C4CCN(C(=O)c5ccccc5)CC4)n3)c2)C2(C)CN(C)C2)cc1 [Example 377]
41.2 | CCOC(=O)N1CCC(c2nc(-c3cncc([C@@](O)(c4ccc(C(C)C)cc4)C4(C)CN(C)C4)c3)no2)CC1 [Example 379]
10.9 | CC(C)c1ccc([C@](O)(c2cncc(C#CC(C)(O)c3ccnc(C(F)(F)F)n3)c2)C2(C)CN(C)C2)cc1 (single isomer, unassigned) [Example 652]
21 | CC(C)c1ccc([C@](O)(c2cncc(-c3noc(C4(O)CCCCC4)n3)c2)C2(C)CN(C)C2)cc1 [Example 108]
104 | CC(C)c1ccc([C@](O)(c2cncc(C#CC3(S(N)(=O)=O)CC3)c2)C2(C)CN(C)C2)cc1 [Example 607]
12.7 | CC(C)c1ccc([C@](O)(c2cncc(-c3noc(C4CC(=O)N(Cc5ccccc5)C4)n3)c2)C2(C)CN(C)C2)cc1 (some centres unmarked) [Example 356]
43.2 | CC(=O)N1CCC(c2nc(-c3cncc([C@@](O)(c4ccc(C(C)C)cc4)C4(F)CN(C)C4)c3)no2)CC1 [Example 447, 1-[4-(3-{5-[(S)-(3-Fluoro-1-methyl-azetidin-3-yl)-hydroxy-(4-isopropyl-phenyl)-methyl]-pyridin-3-yl}-[1,2,4]oxadiazol-5-yl)-piperidin-1-yl]-ethanone]
134 | CC(C)c1ccc([C@](O)(c2cncc(-c3nc(C4CCN(C(=O)CO)CC4)no3)c2)C2(C)CN(C)C2)cc1 [Example 529, 1-[4-(5-{5-[(R)-(1,3-Dimethyl-azetidin-3-yl)-hydroxy-(4-isopropyl-phenyl)-methyl]-pyridin-3-yl}-[1,2,4]oxadiazol-3-yl)-piperidin-1-yl]-2-hydroxy-ethanone]
43.5 | CC(C)c1ccc([C@](O)(c2cncc(C#CC(C)(C)S(=O)(=O)C3CC3)c2)C2(C)CN(C)C2)cc1 [Example 608]
283 | CC(C)c1ccc([C@](O)(c2cncc(N3C[C@H]4C[C@@H]3CO4)c2)C2(C)CN(C)C2)cc1 [Example 239]
87.4 | COc1cncc([C@@](O)(c2ccc(C(C)C)cc2)C2(C)CN(C)C2)c1 [Example 257]
29.7 | CC(C)c1ccc([C@](O)(c2cncc(N3CCC(C)(C)C3)c2)C2(C)CN(C)C2)cc1 [Example 233]
344 | CCC1([C@](O)(c2ccc(OC(F)(F)F)cc2)c2cncc(C#CC(C)(O)c3cccc(C)n3)c2)CN(C)C1 (some centres unmarked) [Example 659]
40.8 | CC(C)c1ccc([C@](O)(c2cncc(-c3noc(C(C)(C)O)n3)c2)C2(C)CN(C3CC3)C2)cc1 [Example 449, 2-(3-{5-[(R)-(1-Cyclopropyl-3-methyl-azetidin-3-yl)-hydroxy-(4-isopropyl-phenyl)-methyl]-pyridin-3-yl}-[1,2,4]oxadiazol-5-yl)-propan-2-ol]
223 | Cc1nc(C(O)CCc2cncc([C@@](O)(c3ccc(C(C)C)cc3)C3(C)CN(C)C3)c2)cs1 (some centres unmarked) [Example 66]
52.1 | CC(C)c1ccc([C@](O)(c2cncc(CCC3(O)CCCc4cccnc43)c2)C2(C)CN(C)C2)cc1 (some centres unmarked) [Example 77]
38 | CC(C)c1ccc([C@](O)(c2cncc(-c3noc(C4CC45CCOCC5)n3)c2)C2(C)CN(C)C2)cc1 (some centres unmarked) [Example 114]
28 | CN1CC(C)(C(O)(c2ccc(OC3CCC3)cc2)c2cncc(N3CCCC3)c2)C1 (centres unmarked) [Example 155]
62.6 | CC(C)c1ccc([C@](O)(c2cncc(-c3nc(COC(C)(C)C)no3)c2)C2(C)CN(C)C2)cc1 [Example 520]
